Like-named read-outs stand apart in the source and are kept apart here.
Biological target: T1, Full-length glucokinase (beta cell isoform) (Homo sapiens, UniProt P35557)
T1 construct: Full-length glucokinase (beta cell isoform) was His-tagged at N-terminus; His tag (N); made in house
T1 sequence (P35557 1-465): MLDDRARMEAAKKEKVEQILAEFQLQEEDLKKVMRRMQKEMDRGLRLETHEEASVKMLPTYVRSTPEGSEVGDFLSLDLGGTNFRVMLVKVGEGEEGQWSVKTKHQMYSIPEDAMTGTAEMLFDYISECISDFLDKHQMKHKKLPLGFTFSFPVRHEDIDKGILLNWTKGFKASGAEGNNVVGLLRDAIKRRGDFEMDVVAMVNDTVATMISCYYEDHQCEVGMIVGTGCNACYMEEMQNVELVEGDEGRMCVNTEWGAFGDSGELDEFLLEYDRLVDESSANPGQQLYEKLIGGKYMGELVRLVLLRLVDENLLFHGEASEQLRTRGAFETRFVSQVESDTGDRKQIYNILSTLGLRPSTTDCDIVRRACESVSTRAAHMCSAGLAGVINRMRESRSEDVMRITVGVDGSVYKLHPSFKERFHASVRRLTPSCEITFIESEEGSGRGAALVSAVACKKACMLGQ
Test: Glucokinase biochemical assay (PK/LDH-coupled, NADH depletion at 340 nm): % activation, EC50, % max activation
Conditions: 5 mM glucose; for activation at 10 µM: read-out: % Activation at 10 uM; for EC50: read-out: EC50; for Emax: fitted maximum activation, read-out: % Max Activation
Outline: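 N-terminally His-tagged full-length human beta-cell glucokinase, room temperature, 5 mM glucose, 1 mM ATP, PK/LDH-coupled with 0.7 mM NADH, 1% DMSO final. Initial velocity from the 200–900 s slope of A340 decline. % activation = (Va/Vo−1)×100, measured across compound concentrations.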

[1] = 10 uM compound, % Activation=(Va/Vo−1)×100
[2] = compound at 10 uM, 1 mM ATP, room temperature

SMILES | activation at 10 µM [1] [%] | EC50 (GK activation) [nM] | Emax [%] | further results
Cc1cc2cc(Oc3ccc(S(C)(=O)=O)cc3)cc(C(=O)Nc3ccccn3)c2o1 [Example 5, 5-(4-Methanesulfonyl-phenoxy)-2-methyl-benzofuran-7-carboxylic acid pyridin-2-ylamide] | -6.3 |  |  | 
Cn1ccc(NC(=O)c2cc(Oc3ccc(S(C)(=O)=O)cc3)c3c(c2)OC(CO)C3)n1 (stereo not shown) [Example 200, 2-Hydroxymethyl-4-(4-methanesulfonyl-phenoxy)-2,3-dihydro-benzofuran-6-carboxylic acid (1-methyl-1H-pyrazol-3-yl)-amide] | 113 | 2900 | 147 | 
Cc1ccc(NC(=O)c2cc(OCc3ccccc3Cl)c3c(c2)OC(C)(C)CC3)nc1 [Example 374, 5-(2-Chloro-benzyloxy)-2,2-dimethyl-chroman-7-carboxylic acid(5-methyl-pyridin-2-yl)-amide] |  |  |  | % Activation at 10 uM [1]: 17.7%
COc1ccc(CC(C)Oc2cc(C(=O)Nc3ccn(C)n3)cc3c2CC(C)(C)O3)cc1 (stereo not shown) [Example 79, 4-[2-(4-Methoxy-phenyl)-1-methyl-ethoxy]-2,2-dimethyl-2,3-dihydro-benzofuran-6-carboxylic acid (1-methyl-1H-pyrazol-3-yl)-amide] | 148 | 2100 | 171 | 
CNC(=O)c1c(F)cc(Oc2cc(C(=O)Nc3ccn(C)n3)cc3c2CC(C)(C)O3)cc1F [Example 400, 4-(3,5-Difluoro-4-methylcarbamoyl-phenoxy)-2,2-dimethyl-2,3-dihydro-benzofuran-6-carboxylic acid(1-methyl-1H-pyrazol-3-yl)-amide] |  |  |  | EC50 (1 mM ATP, room temperature): 140 nM; activation at 10 µM [2]: 192%; Emax (1 mM ATP): 177%
CN(C)C(=O)c1ccc(Oc2cc(C(=O)Nc3ccn(C)n3)cc3c2CC(C)(C)O3)cc1Cl [Example 108, 4-(3-Chloro-4-dimethylcarbamoyl-phenoxy)-2,2-dimethyl-2,3-dihydro-benzofuran-6-carboxylic acid (1-methyl-1H-pyrazol-3-yl)-amide] | 82.2 | 76 | 107 | 
CN(C)C(=O)c1ccc(Oc2cc(C(=O)Nc3ccn(C)n3)cc3sccc23)cc1F [Example 357, 4-(4-(Dimethylcarbamoyl)-3-fluorophenoxy)-N-(1-methyl-1H-pyrazol-3-yl)benzo[b]thiophene-6-carboxamide] | 32.7 |  |  | 
Cn1ncc(NC(=O)c2cc(Oc3ccc(C#N)c(F)c3)c3c(c2)OC(C)(C)C3)n1 [Example 184, 4-(4-Cyano-3-fluoro-phenoxy)-2,2-dimethyl-2,3-dihydro-benzofuran-6-carboxylic acid (2-methyl-2H-[1,2,3]triazol-4-yl)-amide] | 250 | 3200 | 251 | 
Cc1ccc(NC(=O)c2cc(OC(C)C)cc3oc(-c4ccccc4)cc23)nc1 [Example 347, 6-Isopropoxy-N-(5-methylpyridin-2-yl)-2-phenylbenzofuran-4-carboxamide] | 113 | 160 | 158 | 
CC(C)Oc1cc(C(=O)Nc2ccccn2)cc2c1CC(Cc1ccccc1)O2 (stereo not shown) [Example 220, 2-Benzyl-4-isopropoxy-2,3-dihydro-benzofuran-6-carboxylic acid pyridin-2-ylamide] | 13.8 |  |  | 
CC(C)NC(=O)c1ccc(Oc2cc(C(=O)Nc3ccn(C)n3)cc3c2CC(C)(C)O3)cc1F [Example 71, 4-(3-Fluoro-4-isopropylcarbamoyl-phenoxy)-2,2-dimethyl-2,3-dihydro-benzofuran-6-carboxylic acid(1-methyl-1H-pyrazol-3-yl)-amide] | 181 | 410 | 167 | 
Cc1ccc(NC(=O)c2cc(Oc3ccc(S(=O)(=O)N(C)C)cc3)c3c(c2)OC(C)(C)C3)nc1 [Example 128, 4-(4-Dimethylsulfamoyl-phenoxy)-2,2-dimethyl-2,3-dihydro-benzofuran-6-carboxylic acid (5-methyl-pyridin-2-yl)-amide] | 135 | 38 | 112 | 
CC1Cc2c(Oc3ccc(S(C)(=O)=O)cc3)cc(C(=O)Nc3ccn(C)n3)cc2O1 (stereo not shown) [Example 11, 4-(4-Methanesulfonyl-phenoxy)-2-methyl-2,3-dihydro-benzofuran-6-carboxylic acid(1-methyl-1H-pyrazol-3-yl)-amide] | 158 | 2000 | 177 | 
Cc1cc(NC(=O)c2cc(Oc3ccc(C(=O)N(C)C)cc3)c3c(c2)OC(C)(C)C3)no1 [Example 154, 4-(4-Dimethylcarbamoyl-phenoxy)-2,2-dimethyl-2,3-dihydro-benzofuran-6-carboxylic acid (5-methyl-isoxazol-3-yl)-amide] | 36.3 | 4000 | 54 | 
Cc1ccc(NC(=O)c2cc(Oc3ccc(C(=O)N(C)C)c(F)c3)c3c(c2)OC(C)(C)C3)nc1 [Example 148, 4-(4-Dimethylcarbamoyl-3-fluoro-phenoxy)-2,2-dimethyl-2,3-dihydro-benzofuran-6-carboxylic acid (5-methyl-pyridin-2-yl)-amide] | 49.5 | 42.8 | 53 | 
CCS(=O)(=O)c1ccc(Oc2cc(C(=O)Nc3cnn(C)n3)cc3c2CC(C)(C)O3)cc1 [Example 133, 4-(4-Ethanesulfonyl-phenoxy)-2,2-dimethyl-2,3-dihydro-benzofuran-6-carboxylic acid (2-methyl-2H-[1,2,3]triazol-4-yl)-amide] | 308 | 120 | 293 | 
COc1ccnc(NC(=O)c2cc(Oc3ccc(S(=O)(=O)N(C)C)c(F)c3)c3cc(C)oc3c2)c1 [Example 293, 4-{4-[(Dimethylamino)sulfonyl]-3-fluorophenoxy}-N-(4-methoxypyridin-2-yl)-2-methyl-1-benzofuran-6-carboxamide] | 46.9 | 590 | 50 | 
Cn1ccc(NC(=O)c2cc(Oc3ccc(S(=O)(=O)N4CCC4)cc3)c3c(c2)OC(C)(C)C3)n1 [Example 125, 4-[4-(Azetidine-1-sulfonyl)-phenoxy]-2,2-dimethyl-2,3-dihydro-benzofuran-6-carboxylic acid (1-methyl-1H-pyrazol-3-yl)-amide] | 181 | 46 | 162 | 
Cn1ccc(NC(=O)c2cc(Oc3ccc(C(=O)N4CC(O)C4)cc3F)c3c(c2)OC(C)(C)C3)n1 [Example 45, 4-[2-Fluoro-4-(3-hydroxy-azetidine-1-carbonyl)-phenoxy]-2,2-dimethyl-2,3-dihydro-benzofuran-6-carboxylic acid(1-methyl-1H-pyrazol-3-yl)-amide] | 150 | 570 | 146 | 
CC(C)CN1CCc2c(Oc3ccc(S(C)(=O)=O)cc3)cc(C(=O)Nc3ccn(C)n3)cc2C1=O [Example 389, 2-Isobutyl-N-(1-methyl-1H-pyrazol-3-yl)-5-[4-(methylsulfonyl)-phenoxy]-1-oxo-1,2,3,4-tetrahydroisoquinoline-7-carboxamide] |  |  |  | activation at 10 µM [2]: 32.9%
Cn1ccc(NC(=O)c2cc(Oc3ccc(S(C)(=O)=O)cc3)c3c(c2)OC(C)(CO)C3)n1 (stereo not shown) [Example 227, 2-Hydroxymethyl-4-(4-methanesulfonyl-phenoxy)-2-methyl-2,3-dihydro-benzofuran-6-carboxylic acid (1-methyl-1H-pyrazol-3-yl)-amide] | 165 | 690 | 184 | 
Cc1ccc(NC(=O)c2cc(OCc3ccccc3Cl)cc3c2CCC(C)(C)O3)nc1 [Example 375, 7-(2-Chloro-benzyloxy)-2,2-dimethyl-chroman-5-carboxylic acid(5-methyl-pyridin-2-yl)-amide] |  |  |  | % Activation at 10 uM [1]: 5.6%
Cc1ccc(NC(=O)c2cc(Oc3ccc(S(C)(=O)=O)cc3)c3ccn(C)c(=O)c3c2)nc1 [Example 394, 2-Methyl-N-(5-methylpyridin-2-yl)-5-(4-(methylsulfonyl)-phenoxy)-1-oxo-1,2-dihydroisoquinoline-7-carboxamide] |  |  |  | activation at 10 µM [2]: 32%
CNC(=O)c1ccc(Oc2cc(C(=O)Nc3ccn(C)n3)cc3c2CC(C)(C)O3)cn1 [Example 166, 5-[2,2-Dimethyl-6-(1-methyl-1H-pyrazol-3-ylcarbamoyl)-2,3-dihydro-benzofuran-4-yloxy]-pyridine-2-carboxylic acid methylamide] | 203 | 410 | 212 | 
COc1ccnc(NC(=O)c2cc(Oc3ccc(S(C)(=O)=O)cc3)c3cc(C(=O)N(C)C)oc3c2)c1 [Example 289, N6-(4-Methoxypyridin-2-yl)-N2,N2-dimethyl-4-[4-(methylsulfonyl)phenoxy]-1-benzofuran-2,6-dicarboxamide] | 73.8 | 7800 | 133 | 
